Measured values as given in PMC3948622, “Docking, Synthesis and Antiproliferative Activity of N-Acylhydrazone Derivatives Designed as Combretastatin A4 Analogues” (PLoS ONE, 2014).
Where two headings read alike, the source gives them in different places.

What was measured:
BALB/c nude mice = details: for Survival: 4 days
Protocol: During the HFA, tumor cells (i.e., SF-295 and HCT-116) were cultivated within biocompatible, semipermeable polyvinylidene fluoride hollow fibers (HFs) and subcutaneously (s.c.) implanted within the dorsal portion of BALB/c nude mice. LASSBio-1586 (5b) and 5-Fluorouracil (5-FU), which was the positive control, were administered intraperitoneally for 4 consecutive days. On day 5, the fibers were removed to quantify the antiproliferative activity of 5b and 5-FU.
A total of 26 female BALB/c nude (nu/nu) mice aging 6–8 weeks were obtained from the animal facilities of State University of São Paulo (USP), Faculty of Medicine, São Paulo (SP), Brazil. They were kept in well-ventilated and sterile cages (Alesco, São Paulo) under standard conditions of light (12 h with alternative day and night cycles) and temperature (22±1°C) and were housed with access to commercial sterile rodent stock diet (Nutrilabor, São Paulo, Brazil) and water ad libitum. As previously mentioned procedures are in accordance with guidelines for the welfare of animals in experimental neoplasia and with national and international standard on the care and use of experimental laboratory animals and were approved by the local Ethical Committee on Animal Research (Process No. 102/2007).
Mice were anaesthetized with ketamine (90 mg/kg) - xylazine (4.5 mg/kg) (Sigma Aldrich). Groups were divided into: a) Negative control (DMSO 5%, n = 6); b) Positive control (5-Flouoruracil, 5-FU, 25 mg/kg/day, n = 7) (Sigma Aldrich); c) LASSBio-1586 (5b; 25 mg/kg/day, n = 7); d) LASSBio-1586 (5b; 50 mg/kg/day, n = 6). A small incision in the neck was incised to permit subcutaneous (s.c.) implantation of the fibers in the dorsal part of the animal. Each animal received 2 fibers at s.c. site. All incisions were sealed with a surgical stapler. The test compounds were administered intraperitoneally during 4 consecutive days. On day 5, fibers were removed to quantify the antiproliferative capacity as described above.

[1] = tested on: HCT-116 (colon carcinoma); assay: Hollow Fiber Assay (HFA), HCT-116 fibers s.c. in mice; type: in vivo, BALB/c nude mice; details: 4 days; for Proliferation (OD595 nm) HCT-116: mean ± S.E.M.
Protocol: Cell culture of SF-295 (glioblastoma) and HCT-116 (colon carcinoma) was performed in RPMI 1640 medium supplemented with 10% fetal bovine serum, 2 mM glutamine, at 37°C with 5% CO2.
Polyvinylidene fluoride (PVDF) HFs with a 1-mm internal diameter and a molecular weight cutoff point of 500 kDa were used (Spectrum Laboratories, Houston, TX). The fibers were cut into pieces 12–15 cm long, washed 2× with sterile distilled water and kept in sterile conditions.
Before use, under sterile conditions, the fibers were incubated in complete RPMI with 20% fetal bovine serum (FBS) overnight (packaging time). Cell viability was assessed by trypan blue exclusion assay. Then, a cell suspension of 7.0×10^6 cell/mL at 4°C was injected into the fiber, with the ends thereof immediately heat-sealed. The fibers were cut into 2 cm each, transferred to petri plates and incubated in complete RPMI medium for 24 h prior to implantation in mice. Each cell was injected into one fiber of a different color (HCT-116, yellow fibers; SF-295, blue fibers).
Each animal received 2 fibers at s.c. site. All incisions were sealed with a surgical stapler.
Tumor cell proliferation was quantified through the ability of living cells to reduce the yellow dye 3-(4,5-dimethyl-2-thiazolyl)-2,5-diphenyl-2H-tetrazolium bromide (MTT, Sigma Aldrich) to a purple formazan product. For this purpose, the fibers removed from animals were incubated with MTT 1 mg/mL in 6-well plates during 4 h at 37°C, 5% CO2 and 95% humidity. The MTT solution was aspirated; fibers were washed with saline solution containing protamine sulphate 2.5% and incubated in protamine solution overnight at 4°C. Fibers were transferred to 24 well plates, cut into 2 or 3 pieces and put to dry. The formazan was dissolved in […] of DMSO, aliquots (150 uL) were transferred to 96 well plates and absorbance was measured at 595 nm (DTX-880, Beckman Coulter).

[2] = tested on: OVCAR-8 (ovaries adenocarcinoma); assay: In vitro antiproliferative MTT assay, OVCAR-8; type: cell-based
HL-60 (human leukemia) = assay: In vitro antiproliferative MTT assay, HL-60; type: cell-based
[3] = IC50 for human lymphocytes/IC50 for cancer cell line

## COc1cc(C(=O)N/N=C/c2ccccc2)cc(OC)c1OC [Compound 5b, (E)-N′benzylidene-3,4,5-trimetoxybenzohydrazide]
BALB/c nude mice; 25 mg/kg/day intraperitoneally
  Survival: 7/7
BALB/c nude mice; 50 mg/kg/day intraperitoneally
  Survival: 6/6
BALB/c nude mice; intraperitoneally for 4 consecutive days, HFA
  deaths of mice during treatment: no deaths occurred
[1]; 25 mg/kg/day intraperitoneally
  Inhibition (%) HCT-116: 82.89%
  Proliferation (OD595 nm) HCT-116: 0.26±0.04 OD595 nm
[1]; 50 mg/kg/day intraperitoneally
  Inhibition (%) HCT-116: 80.76%
  Proliferation (OD595 nm) HCT-116: 0.29±0.05 OD595 nm
[2]; Homo sapiens, OVCAR-8, Table 2, MTT
  IC50: 290 nM
[2]; [3]
  SI Lymphocyte/ OVCAR-8: 4.39±0.21
[2]; SI of 5b relative to SI of CA-4
  comparative selectivity index (CA-4 vs 5b) OVCAR-8: 0.5
HL-60 (human leukemia); Homo sapiens, HL-60, Table 2, MTT
  IC50: 290 nM
HL-60 (human leukemia); [3]
  SI Lymphocyte/ HL-60: 4.11±0.39
